Assays:
[1] = tested on: Cytc (Cytochrome-c) mRNA in HT-29 cells; experiment: sqRT-PCR gene expression, Cytc; type: cell-based, human; conditions: 200 μM, 24 h, vs untreated cells
Experimental: (§1) Total RNA was isolated from HT-29 cells using the TRIzol reagent (TaKara, Japan) following the manufacturer’s instruction. The quantity and quality of each RNA sample were analyzed with a NanoDrop-1000 (Thermo Fisher Scientific, USA), followed by conversion to cDNA using RevertAid cDNA synthesis kit (Thermo Fisher Scientific, CA, USA) using 1 μg of mRNA to synthesize cDNA. Semi-quantitative reverse transcriptase-polymerase chain (sqRT-PCR) reaction was carried out in a Veriti Thermal Cycler (Applied Biosystems, CA, USA) using 2X Taq DNA polymerase Master Mix RED (Ampliqon, Denmark, Germany) as we previously described method. All sqRT-PCRs were run for at least three times. GAPDH served as a housekeeping gene to normalize the expression levels. The expression levels were analyzed by measuring the intensity of the band from the gel using Image-J software.

[2] = tested on: Casp-3 (Caspase-3) mRNA in HT-29 cells; experiment: sqRT-PCR gene expression, Casp-3; type: cell-based, human; conditions: 200 μM, 24 h, vs untreated cells
Experimental: as §1

[3] = tested on: Cytc protein in HT-29 cells; experiment: Western blot, Cytc protein; type: cell-based, human; conditions: 100 μM, 24 h, whole-cell lysate, vs untreated cells
Experimental: Total protein was isolated from HT-29 cells by using lysis buffer. Cells were collected by centrifugation at 1,500 rpm for 5 min. After that, cell pellets were re-suspended with RIPA lysis buffer consisting of 1 mM protease inhibitor cocktail (PIC; Sigma-Aldrich; P8340) and lysed at […] for 1 h. After incubation, the protein was obtained by centrifugation at 13,000 × g for 15 min and kept for − 80 °C until analysis. Also, mitochondrial and cytosolic fractions were obtained by using fraction lysis buffer as described previously[50] with minor modifications. Lysed cells were kept in ice for 10 min and then cells were triturated by a 27 gauge syringe (25 strokes) to become homogeneous followed by centrifugation at 13,000 × g for 30 min. The collected supernatant was the cytosolic fraction. After the pellet was washed with lysis buffer and it was dissolved in lysis buffer for protein quantification. Protein concentration was measured by Pierce BCA protein assay kit (Thermo Scientific Laboratories, Rockford, USA) according to the manufacturer instructions. Equal amounts of proteins from all samples were separated by 10% SDS–polyacrylamide gel electrophoresis (SDS-PAGE) and electrotransferred. Polyvinylidene difluoride (PVDF) membrane was blocked with 5% skimmed milk for 1 h, followed by incubation with primary (Cytochrome-c: sc-13560; Bid: sc-11423; COX-IV: #4850; 1:2000; GAPDH: #3683; 1:10,000) and HRP-conjugated secondary (Got Anti-mouse IgG: 20102; Got anti-rabbit IgG: 20202: 1:10,000) antibodies against specific proteins. The protein signals were detected by Enhanced Chemiluminescence (ECL) detection kit (Amersham Piscataway, NJ, USA). The protein expression levels were analyzed by measuring the intensity of the band from scanned films using Image-J software. GAPDH and COX-IV served as a housekeeping protein to normalize the expression levels.

[4] = tested on: CM-Dil labelled HT-29 xenograft in zebrafish embryos; experiment: Zebrafish HT-29 xenograft antitumor assay; type: in vivo, zebrafish (Danio rerio); set-up: inhibition of tumor growth: concentration or dose not given beside the values; conditions: for inhibition of tumor growth rate: 48 hpi; for inhibition of tumor growth rate / tumor growth reduction: 200 μM; for tumor growth reduction: 72 hpi; for inhibition of tumor growth: 24 hpi
Experimental: For cell labelling, HT-29 cells were incubated with cell tracker CM-Dil (Invitrogen, Carlsbad, CA, USA) dye at a final volume was 20 µL/mL for 25 min at 37 °C. To remove the unstrained dye, cells were washed twice and re-suspended with 1X PBS, pH 7.4 to a final density of 2.1 × 10^6 cells/mL. Prior transplantation, CM-Dil labelled cells were assessed for viability using trypan blue exclusion assay. More than > 90% of viable cells were used. For xenotransplantation, 48-hours post-fertilization (hpf) wild-type ABiC embryos were anaesthetized in 0.01% tricaine methanesulfonate (Sigma-Aldrich; MS222) solution containing 0.3% phenylthiocarbamide (PTU; Sigma-Aldrich; P7629). After anesthetization, CM-Dil (a lipophilic fluorescent tracking dye) labelled HT-29 cells grafted into the yolk sac of each zebrafish embryos by using a microinjector IM-300 (Narishige, Tokyo, Japan). After injection, embryos were incubated for 1 h at 28 °C. For confirmation of the visible cell mass at the injection site, zebrafish were transferred to an incubator and maintained at 37 °C.
[…] CM-Dil labelled HT-29 xenograft zebrafish embryos were randomly selected and hosed into 4 replicate wells in 12-well cell culture plates (5 embryos/well; 20 embryos/treatment group; 20 × 4 = 80). The different doses (50, 100 and 200 μM) of all DKPs were treated with transplanted embryos. Before DKPs treatment, the initial fluorescence intensity of transplanted cancer cells was measured at 0 hour post-injection (hpi). At the end of experiment 24, 48, and 72 hpi, all embryos were selected from each well and were photographed under an inverted fluorescence microscope (Nikon Eclipse TE2000-U, Tokyo, Japan). The following acquisition parameters were employed over time: Image scaling: Low = 130; High = 2,900; Exposure Time = 100 ms and Binning = 1. The fluorescence intensity of the tumor in the embryos was measured and the percentage of tumor growth inhibition was calculated according to the following formula: Inhibitionrate(%)=Z(Negativecontrol)-Z(Treatment)/Z(Negativecontrol)×100%

zebrafish (ABiC) embryos = experiment: Zebrafish embryo developmental toxicity assay; type: in vivo, zebrafish (Danio rerio); conditions: for survival rate of embryos compared with untreated and DMSO treated embryos: 50, 100 and 150 μM, 96 hpf

Compound | Cytc gene expression up-regulation [1] [fold] | Casp-3 gene expression up-regulation [2] [fold] | Cytc protein expression up-regulation [3] [fold] | inhibition of tumor growth rate [4] [%] | tumor growth reduction [4] [%] | survival rate of embryos compared with untreated and DMSO treated embryos (zebrafish (ABiC) embryos) | inhibition of tumor growth [4] [%] | tumor growth inhibition rates compared to other peptides ([4]; all time intervals, different doses) | survival rate of embryos compared with untreated embryos (zebrafish (ABiC) embryos; lower doses (50 and 150 μM))
CC(C)C[C@@H]1NC(=O)[C@@H]2CCCN2C1=O [DKP-1, cyclo (L-Pro-L-Leu)] | 2.32 | 2.32 | 1.21 | 57 | 68 | no significant decrease |  |  | 
CC(C)[C@@H]1NC(=O)[C@@H]2CCCN2C1=O [DKP-2, cyclo (L-Pro-L-Val)] | 1.78 | 1.31 |  | 58 | 78 | no significant decrease | > 30 |  | 
O=C1N[C@@H](Cc2ccccc2)C(=O)N2CCC[C@@H]12 [DKP-3, cyclo (L-Pro-L-Phe)] | 4.29 | 1.76 | 1.45 | 68 | 81 |  | > 30 | highest tumor growth inhibition rates | higher
O=C1N[C@@H](Cc2ccc(O)cc2)C(=O)N2CCC[C@@H]12 [DKP-4, cyclo (L-Pro-L-Tyr)] | 3.62 | 2.73 | 1.85 | 60 | 74 | no significant decrease | > 30 |  | 
